Data as given in a melting point compilation (Tetko et al.; mined from patent text by program, amines drawn as free bases though some values may be those of a salt).

SMILES	melting point
O=C(O)c1cc(Oc2ccc(C(F)(F)F)cc2Cl)ccc1Cl	103 to 104 °C
CN1C(=O)C(c2cc[nH]c2)(c2cccc(O)c2)N=C1N (configuration not stated)	142 to 145 °C
COCCNC(=O)c1ccc(C)c(-n2c(C)cc(OCc3ccc(F)cc3CNC(=O)Nc3cc(C(C)(C)C)nn3-c3ccc(Cl)c(O)c3)c(Cl)c2=O)c1	186 to 187 °C
Cn1ncc2c(=O)n3c(nc21)SC(C(=O)O)C3 (configuration not stated)	274 to 276 °C
COC(=O)c1ccc(NC(=O)NCc2cccc(OC(C)=O)c2)cc1Cl	113 to 114 °C
Cc1cc(C(N)=O)ncc1C(c1c(F)ccc(F)c1F)S(=O)(=O)CCC(C)(C)C (configuration not stated)	143 to 144 °C
CC(Oc1cc(-c2nn(C)c(C(F)(F)F)c2Cl)c(F)cc1Cl)C(=O)O (configuration not stated)	150 to 151 °C
NC(=O)c1ccc(F)c2c1CC(NCCCc1c[nH]c3ccc(F)cc13)CO2 (configuration not stated)	122 °C
O=C(O)c1cc2cc3c(cc2c2cc(OCc4ccccc4)ccc12)OCO3	263 to 265 °C
COc1ccc(Cl)cc1C(=O)NCCc1ccc(C(C)CC(=O)O)cc1 (configuration not stated)	125 to 127 °C
CN(C)c1ccccc1CS(=O)c1nc2c(n1-c1ccccn1)CCC2 (configuration not stated)	140 to 141 °C
NS(=O)(=O)c1ccc(-n2nc(C(F)(F)F)cc2-c2ccc(-c3ccco3)cc2)cn1	140 to 170 °C
CCCCNS(=O)(=O)CC(O)C(O)C(CC1CCCCC1)NC(=O)c1ccccn1 (configuration not stated)	167 to 170 °C
CCCCCCCCC(c1ccccc1)S(=O)(=O)NC(=O)Nc1c(C(C)C)cccc1C(C)C (configuration not stated)	145 to 146 °C
O=C(O)CCc1cc(OCCCc2cn(-c3ccc(C(F)(F)F)cn3)nc2OCc2ccccc2)nn1-c1ccccc1	159 to 161 °C
O=C(O)C1=Cc2cc(Oc3ccc(Cl)cc3)ccc2OC1C(F)(F)F (configuration not stated)	140 to 142 °C
CCCCCC(CC(=O)Nc1cc(C(N)=O)ccc1C(C)(C)C)c1cc(C(N)=O)c(OC)cc1OC (configuration not stated)	160 to 163 °C
Clc1cccc(Nc2ncnc3[nH]nc(NCc4ccc(-c5ccccc5)cc4)c23)c1	250 to 252 °C
C=CCC1=C(C)C(O)CC1=O (configuration not stated)	130 to 132 °C
Cc1c(C)c2c(c(C)c1NCc1ccccc1)C(=O)C(C)(C)O2	98 to 99 °C
C=CCOC(=O)c1cc(OCC=C)c(OCC=C)c(S(C)(=O)=O)c1	78 to 80 °C

SMILES	melting point
Cc1cc(=O)c(-c2ccc(C#N)cc2)c(C)[nH]1	192 to 195 °C
COc1cccc(-c2csc(-c3cccc([N+](=O)[O-])c3)n2)c1	122 to 123 °C
Cc1cc2c(=O)c(Cc3cccnc3)cn3c4ccc(Br)cc4c(c1)c23	202 to 204 °C
Cc1nnc2n1-c1ccc(C#CCC3C(=O)Nc4ccccc43)cc1C(c1ccccc1Cl)=NC2 (configuration not stated)	141 to 143 °C
CC(=O)NCC1CCC(C(=O)N2CC2C#N)CC1 (configuration not stated)	92 to 94 °C
CCCc1c(COc2ccc3c(=O)cc(C(=O)O)oc3c2CCC)ccc(C(C)=O)c1O	195 to 205 °C
CCCCCCCCc1cc2c(cc1C(C)=O)C(C)(C)CCS2(=O)=O	77 to 78 °C
CCc1ncccc1NC(=NC#N)NC(NC(=O)Cc1ccc(Cl)cc1)C(C)(C)C (configuration not stated)	112 to 114 °C
C[Si](C)(C)OC1(C#N)CCOc2c(Cl)cc(Cl)cc21 (configuration not stated)	77 to 79 °C
CC(=O)NC[C@H]1CN(c2ccc(-c3nnc(CCCl)s3)c(F)c2)C(=O)O1	178 to 180 °C
Cc1nn(-c2cccc(C(F)(F)F)c2)c(C)c1CC(=O)O	83 to 85 °C
CC(=S)NC(C(=O)NCc1ccccc1)c1ccco1 (configuration not stated)	78 to 80 °C
Cc1nnc2ccc(-c3cccc(NC=O)c3)nn12	265 to 268 °C
CNC(=O)c1ccc(N(CC(=O)OC(C)(C)C)C(=O)OC(C)(C)C)cc1	164 to 166 °C
CCC(C)c1nn(-c2ccc(C(F)(F)F)cn2)cc1CCCOc1c(CC(=O)O)cccc1OC (configuration not stated)	117 to 118 °C
Cc1ccc(N)cc1C(=S)OC(C)(C)C	76 to 78 °C
COc1cc2c(=O)n(CCN(C)C)c3c(cnc4cccc(N)c43)c2cc1OC	239 to 241 °C
Cc1c(Cc2ccc(C(=O)O)s2)n(S(=O)(=O)c2cccc(C(C)(C)C)c2)c2ccc(C(F)(F)F)cc12	171 °C
CC(C(=O)O)c1ccc2c(c1)C(=O)CC(C(C)C)O2 (configuration not stated)	94 to 95 °C
CC(C)(COC(=O)c1ccccc1)c1cc(OS(C)(=O)=O)ccc1OC(=O)c1ccccc1	100 to 101 °C
CNC(=O)ON=C(SCC(N)=O)C(C)(C)[N+](=O)[O-]	125 to 127 °C

Other lines, results leading:

melting point	SMILES
118 °C	Brc1ccc(-n2ccc3cc(OCc4ccccc4)ccc32)cc1
105 to 107 °C	CCCCCCCCCCCCCCCCCCNS(N)(=O)=O
118 to 121 °C	CCCCCC(=O)NC(Cc1cnc(SCCC)n1Cc1ccccc1Cl)C(=O)O (configuration not stated)
156 to 159 °C	O=C1CN2C(=O)C(c3ccccc3)c3cc(Cl)cc(c32)N1 (configuration not stated)
143 to 145 °C	CC1(C)OC(c2ccc(S(N)(=O)=O)cc2)=C(c2cc3ccccc3o2)C1=O
157 to 158 °C	COc1ncccc1C(=O)NCCc1ccc(CC(=O)O)cc1
187 °C	CCc1ccc2c(c1)C=Cc1cc(C)ccc1C2c1cn(-c2ccnc(N(C)CC(=O)O)n2)c(=O)[nH]c1=S (configuration not stated)
163 °C	O=C(Nc1ccn[nH]1)c1cccnc1Cl
142 to 150 °C	O=C1c2ccccc2C2(O)Oc3c(ccc(Cl)c3Cl)C12O (configuration not stated)
130 °C	COC1CC(N)C(O)C(C)O1 (configuration not stated)
240 °C	O=C1C(c2ccc(O)cc2)=C(Br)c2ccc(O)cc21
166 to 168 °C	CC(=NO)C1=CCN(C)CC1
100 to 101 °C	CCCCCCCCCCCCCCN(C)c1ccc([N+](=O)[O-])cc1C(=O)O
102 to 104 °C	C#CCn1cccc1-c1nc(-c2ccc(OC)cc2)c(-c2ccc(OC)cc2)s1
136 to 137 °C	CS(=O)(=O)c1ccc(C2=C(c3ccccc3)CCC2)cc1
268 to 273 °C	CC(C)Nc1c(-c2c(F)cc(F)cc2F)c(Cl)nc2nncn12
125 to 127 °C	CC(=O)OC(C)(C(=O)O)c1ccc(-c2ccccc2)c(F)c1 (configuration not stated)
123 to 124 °C	O=C(CCSC(=O)c1ccccc1)N[C@@H](Cc1ccccc1)C(=O)O
150 to 152 °C	CN1C(=O)C([S-])=C(SC(N)=[NH2+])C1=O
158 to 161 °C	Cc1n[nH]c2cc(-c3nn(C(C)c4oc5ccccc5c(=O)c4-c4cccc(F)c4)c4ncnc(N)c34)ccc12 (configuration not stated)
182 to 183 °C	O=C(Nc1ccc(Cl)cc1)C1=C(O)CS(=O)(=O)N(Cc2ccc(Cl)cc2)c2ccccc21
62 to 65 °C	N#CCCOC(=O)C=Cc1ccccc1
122 to 125 °C	FC(F)Oc1cccc(-c2ccc3nnn(Cc4ccc5ncccc5c4)c3n2)c1
168 °C	O=C(COc1cc(-c2ccccc2)nc2cccc(Cl)c12)N1CCOCC1
70 °C	COC(=O)c1ccc(S(C)(=O)=O)c(COc2ccnn2C)c1Cl
160 to 163 °C	CC(=O)C1=C(CS(=O)c2ccccc2)CC2C3CCC4=CC(=O)CCC4(C)C3=CCC12C (configuration not stated)
> 260 °C	Nc1c2c(nc3ccc(Cl)cc13)CCCC2=O
84 to 86 °C	CCOc1ccc(C(O)(C(F)(F)F)C(F)(F)Cl)cc1 (configuration not stated)

melting point	SMILES
207 to 208 °C	CCOC(=O)c1ccc(NC(=O)C=C(c2ccc(Br)cc2)c2ccc(Br)cc2)cc1
134 to 135 °C	Cc1ccc(-c2cc(CNC(CO)CO)c(=O)n(CC(C)C)n2)cc1
181 to 182 °C	COCCOC(=O)C1=C(C)Nc2nccn2C1c1ccccc1C(F)(F)F (configuration not stated)
168 to 173 °C	COc1c(C)c2c(c(OS(=O)(=O)c3ccc(C)cc3)c1CC=C(C)C=O)C(=O)OC2
209 to 210 °C	CON=C(C(=O)O)c1csc(=N)n1O
182 to 183 °C	CC(=O)N(C(C)=O)c1cc2c(c(N(C(C)=O)C(C)=O)c1)OC(C(Cl)(Cl)Cl)OC2C(Cl)(Cl)Cl (configuration not stated)
223 to 224 °C	Cc1c(-c2ccccc2)c2cc(Cl)ccc2n1CC(N)=O
230 to 235 °C	Cc1ccc(C2=Cc3cc(C(=O)Nc4ccc(CN(C)C5CCOCC5)cc4)ccc3OC2)cc1
103 to 105 °C	Nc1nc2ccccc2c2c1ncn2CCCCNC(=O)c1cccc(C(=O)c2ccccc2)c1
167 °C	CCCn1nnc2c(C(N)=O)ncn2c1=O
155 to 158 °C	CC(C(=O)O)c1ccc2c(c1)C(=O)c1ccccc1CN2C (configuration not stated)
134 to 135 °C	CC(C)(C)OC(=O)NC(Cc1cc(C(=O)c2cc(C(F)(F)F)cc(C(F)(F)F)c2)ccc1N)C(=O)OC(C)(C)C (configuration not stated)
106 to 108 °C	COc1nc(C)cnc1NS(=O)(=O)c1cccnc1-c1ccc(COCCO)cc1
162 to 166 °C	CNc1c(F)cc2c(=O)c(C(=O)O)cn(-c3ccc(F)c(N)c3)c2c1Cl
203 to 205 °C	COc1ccc(CC(=O)NC(NC(=NC#N)c2cccc3ncccc23)C(C)(C)C)cc1OC (configuration not stated)
162 to 163 °C	CNc1nc(-c2cc3cccc(N(C)S(=O)(=O)c4cccs4)c3[nH]2)cs1
133 to 134 °C	CCOCc1cccc2cc(C(N)=O)oc12
113 to 115 °C	COc1ccc(-c2ccc(N(C)C)cc2)cc1C=O
124 to 126 °C	CC(C)(C)OC(=O)N1CCn2c(-c3ccccc3)cc(C#N)c2C1
108 °C	CC(C)Sc1cc(SC(C)C)c2ccc3c(SC(C)C)cc(SC(C)C)c4ccc1c2c43
82 to 86 °C	COc1ccc(OP(Oc2ccc(OC)cc2C(C)(C)C)Oc2ccc(OC)cc2C(C)(C)C)c(C(C)(C)C)c1
> 270 °C	CCn1c(=O)c2[nH]c(/C=C/c3ccc(O)cc3)nc2n(CC)c1=O
30 to 32 °C	CC(=O)c1noc2ccccc12
110 to 112 °C	CCCCC/C(=C\c1ccccc1)CNc1cccc(-c2ccnc3c(C(=O)c4cccs4)cnn23)c1
242 to 244 °C	CCC(C)Oc1ccccc1-c1nc2ccc(C(=O)O)cc2c(=O)[nH]1 (configuration not stated)
274 °C	Cc1nc(NC(=O)c2cnn3c(C(F)(F)F)cc(-c4ccc(Cl)cc4)nc23)sc1S(=O)(=O)NC(C)(C)CO
120 °C	CC(Oc1ccc([N+](=O)[O-])cc1)c1c(F)ccc(F)c1F (configuration not stated)
